The nature of data set [1]: Lipophilicity as RM values by RP-TLC. In kind it is physicochemical. To be noted: methanol/water 70/30, 24 °C, average of at least five measurements. An excerpt: Since lipophilicity is a significant physicochemical property determining distribution, bioavailability, metabolic activity and elimination, we tried to determine experimentally the lipophilicity of the new substances by a RPTLC method as RM values (Table 1) and to compare them with the corresponding theoretically calculated clog p values in n-octanol-buffer. This is considered to be a reliable, fast and convenient method for expressing lipophilicity. Lipophilicity (Table 2), was theoretically calculated as Clog p values in n-octanol-buffer by the CLOGP Programme of Biobyte Corp..
Reversed phase TLC (RP-TLC) was performed on silica gel plates impregnated with 5% (v/v) liquid paraffin in light petroleum ether. The mobile phase was a methanol/water mixture (70/30, v/v). The plates were developed in closed chromatography tanks saturated with the mobile phase at 24 °C. Spots were detected under UV light. RM values were determined from the corresponding Rf values (from five individual measurements) using the equation RM = log [(1/Rf) − 1] (Table 1).

Data set [2] deals with T1, soybean lipoxygenase (Glycine max, UniProt P08170).
T1 construct: purchased Sigma Chemical, Co. (St. Louis, MO, USA)
T1 sequence (P08170 1-839): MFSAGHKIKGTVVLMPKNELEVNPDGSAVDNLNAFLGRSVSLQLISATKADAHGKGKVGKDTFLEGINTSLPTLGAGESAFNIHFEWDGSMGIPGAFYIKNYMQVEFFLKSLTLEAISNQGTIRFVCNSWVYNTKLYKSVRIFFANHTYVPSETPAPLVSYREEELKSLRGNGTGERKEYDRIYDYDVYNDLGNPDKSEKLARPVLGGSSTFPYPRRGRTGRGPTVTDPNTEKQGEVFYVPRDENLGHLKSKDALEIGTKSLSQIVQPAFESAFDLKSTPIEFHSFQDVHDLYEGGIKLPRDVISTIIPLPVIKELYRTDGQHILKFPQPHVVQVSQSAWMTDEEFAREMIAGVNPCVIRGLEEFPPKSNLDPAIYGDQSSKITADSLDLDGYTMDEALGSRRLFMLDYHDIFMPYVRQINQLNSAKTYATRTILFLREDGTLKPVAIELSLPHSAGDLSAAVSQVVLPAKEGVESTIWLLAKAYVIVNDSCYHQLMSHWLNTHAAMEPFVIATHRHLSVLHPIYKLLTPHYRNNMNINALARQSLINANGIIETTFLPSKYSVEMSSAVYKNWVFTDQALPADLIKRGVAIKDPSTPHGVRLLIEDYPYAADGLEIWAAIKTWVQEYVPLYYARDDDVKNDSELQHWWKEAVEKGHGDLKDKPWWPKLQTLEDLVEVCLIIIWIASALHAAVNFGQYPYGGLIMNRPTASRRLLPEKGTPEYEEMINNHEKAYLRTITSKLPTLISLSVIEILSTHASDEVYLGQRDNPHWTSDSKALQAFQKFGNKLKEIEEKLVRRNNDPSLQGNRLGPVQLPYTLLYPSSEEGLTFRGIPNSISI
As to the kind of experiment: Soybean lipoxygenase inhibition in vitro. It is filed as biochemical. Particulars: for IC50: read-out: IC50 μM LOX Inh. The procedure: DMSO solution of the tested compound was incubated with sodium linoleate (0.1 mM) and 0.2 mL of soybean lipoxygenase solution (1/9 × 10^−4 w/v in saline) in buffer pH 9 (tris) and at room temperature. […] The results are given in Table 1 expressed as IC50 values or % inhibition at 100 μM.

The nature of data set [3]: Inhibition of linoleic acid lipid peroxidation (AAPH). To be noted: % inhibition at 100 μM; pH 7.4, 37 °C. The procedure:
Production of conjugated diene hydroperoxide by oxidation of sodium linoleate in an aqueous dispersion is monitored at 234 nm. AAPH is used as a free radical initiator [12, 24]. Ten microlitres of the 16 mM sodium linoleate solution was added to the UV cuvette containing 930 μL of 0.05 M phosphate buffer, pH 7.4 prethermostated at 37 °C. The oxidation reaction was initiated at 37 °C under air by the addition of 40 mM AAPH solution (50 μL). Ten μL of the tested compounds were added in the mixture. Lipid oxidation was measured in the presence of the same level of DMSO. The rate of oxidation at 37 °C was monitored by recording the increase in absorption at 234 nm caused by conjugated diene hydroperoxides. The results were compared to the appropriate standard inhibitor trolox (63%) (Table 1).

Data set [4] concerns carrageenin-induced rat paw oedema. As to the kind of experiment: Inhibition of the carrageenin-induced rat paw oedema. It is filed as in vivo, Fisher-344 rats. To be noted: 0.01 mmol/1 kg, i.p., 3.5 h after carrageenin. On the procedure:
(§1) Anti-inflammatory tests were conducted on Fisher-344 inbred rats of ca. 200 g body weight whereas antinociception and motor and sensory functions after sciatic nerve crash were performed on Wistar rats. Both sexes were used. Females pregnant were excluded. Each group was composed of 6 animals. The animals, which have been bred in our laboratory, were housed under standard conditions and received a diet of commercial food pellets and water ad libitum during the maintenance. Our studies were carried out in accordance with recognised guidelines on animal experimentation.
The tested compounds 0.01 mmol/kg body weight were suspended in water with few drops of Tween 80 and ground in a mortar before use. Controls received the liquid vehicle only. All the in vivo experiments were repeated at least in triplicate and were subjected to statistic analysis using the student’s t-test.
Oedema was induced in the right hind paw of Fisher 344 rats by the intradermal injection of 0.1 mL 2% carrageenin in water. Each group was composed of 6 animals which they were entirely fasted during the experiment period. The tested compounds 0.01 mmol/kg body weight, were given intraperitoneally simultaneously with the carrageenin injection. The rats were euthanized 3.5 h after carrageenin injection. The difference between the weight of the injected and not-injected paws was calculated for each animal. The change in paw weight was compared with that in control animals (treated with water) and expressed as a percent inhibition of the oedema (ICPE % values in Table 1). Indomethacin 0.01 mmol/kg was used as reference compound. ICPE % are the mean values from two different experiments with a standard error of the mean less than 10%.
For orientation: Carrageenan injected into the paw causes an acute inflammation.

Data set [5] concerns acetic acid-induced writhing. Put plainly: Antinociceptive screen (writhing test). Particulars: Rattus norvegicus, ip, 0.5 h, i.p. 30 min before 0.6% acetic acid, writhes counted over 30 min, read-out: % ANA (in vivo analgesic-antinociceptive activity). It is filed as in vivo, Wistar rats. The procedure: as §1
[…] Controls received the liquid vehicle only. All the in vivo experiments were repeated at least in triplicate and were subjected to statistic analysis using the student’s t-test.
The writhing reflex was used. The test compounds were administered i.p. 30 min prior to the i.p. administration of 1 mL/100 g body weight of 0.6% acetic acid. […] After 5 min, the number of stretches characterized by repeated contractions of the abdominal musculature accompanied by extension of the hind limbs was counted every 5 min for the next 30 min. […] The % antinociceptive activity (a:a) was calculated as: % a:a = (n − n'/n) × 100 (a: a analgesic activity, n average number of writhes of control group, n' average number in the test group).
In general terms: In writhing tests, fewer writhes than in controls are read as antinociception.

The target of data set [6] is T2, pancreatic bovine trypsin (Bos taurus, UniProt P00760).
T2 construct: purchased Sigma Chemical, Co. (St. Louis, MO, USA)
T2 sequence (P00760 24-246): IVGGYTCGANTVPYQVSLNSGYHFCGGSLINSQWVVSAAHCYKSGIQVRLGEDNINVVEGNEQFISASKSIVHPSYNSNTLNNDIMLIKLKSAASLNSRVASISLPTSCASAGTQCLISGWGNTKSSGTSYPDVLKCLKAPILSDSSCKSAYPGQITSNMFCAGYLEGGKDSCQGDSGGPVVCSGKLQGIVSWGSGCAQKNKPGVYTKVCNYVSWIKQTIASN
Put plainly: Inhibition of trypsin induced proteolysis in vitro. In kind it is biochemical. An excerpt:
All chemicals, solvents, chemical and biochemical reagents were of analytical grade and purchased from commercial sources (Merck, Merck KGaA, Darmstadt, Germany, Fluka Sigma-Aldrich Laborchemikalien GmbH, Hannover, Germany, Alfa Aesar, Karlsruhe, Germany and Sigma, St. Louis, MO, USA). Soybean lipoxygenase, pancreatic bovine trypsin, sodium linoleate, free radical DPPH and 2,2-azinobis-2-methyl-propanimidamine HCl (AAPH) were obtained from Sigma Chemical, Co. (St. Louis, MO, USA), carrageenin, type K, was commercially available. All starting materials were obtained from commercial sources and used without further purification.
The test was carried out according to a modified Kunitz method. Bovine albumin was used as substrate for trypsin. The reaction mixture consisted of 0.075 mg/mL trypsin (200 μL) and 780 μL of phosphate buffer pH 7.6 (including the tested compounds (20 μL in DMSO, final concentration 100 μM) preincubated at 37 °C for 20 min and then 1 mL of albumin (stock solution 6 g/100 mL in phosphate buffer 0.1 M, pH 7.6) was added and incubated at 37 °C for 30 min. After the incubation 1 mL of 5% trichloroacetic acid was added to the incubated solution to stop the enzyme’s reaction and allowed to set at room temperature for 1 h. Then the solution was filtered by filter paper and the absorption of the filtered solution was measured at 280 nm. Salicylic acid was used as a reference compound (Table 1).

Where [7] appears, read: sodium linoleate 0.1 mM, tris buffer pH 9, room temperature.

pIC50: −log10 of the molar value. Where two headings read alike, the source gives them in different places. Marks after values point to notes of the source that are not given here.

On to `O=C(O)/C=C/c1cccs1` [IV], for which, in data set [1], the “RM (±S.D.)” value is −0.56 ± 0.019. Also, in data set [2] (setting [7]), the IC50 – broadly, the concentration needed to halve the response being measured – is 98 µM. Moreover, the “AAPH % (% inhibition of lipid peroxidation)” value in data set [3] is given as 60%. The “% ICPE (carrageenin-induced rat paw oedema inhibition)” value in data set [4] is recorded as 42.7 * %.

Regarding `O=c1cc(O)c2ccccc2o1` [Compound 4-HC, 4-hydroxycoumarin, reference compound], in data set [3], the “AAPH % (% inhibition of lipid peroxidation)” value turned out to be 100%. The “% ICPE (carrageenin-induced rat paw oedema inhibition)” value in data set [4] is given as 62 * %.

In the case of `O=C(O)/C=C/c1ccc(OCc2ccc(Br)cc2)cc1` [II], the “RM (±S.D.)” value in data set [1] was −0.41 ± 0.026. Further, the pIC50 (in general, the IC50 on a negative log10 scale, so that one unit is a factor of ten) in data set [2] is 4.18. Besides, in data set [5], the inhibition in vivo at 0.01 mmol/0.1 kg is 67%. In addition, in data set [3], the “AAPH % (% inhibition of lipid peroxidation)” value worked out at 84%. Moreover, the “% ICPE (carrageenin-induced rat paw oedema inhibition)” value in data set [4] is given as 41.6 * %; in data set [4] (listed as acid II), 44%.

As for `COc1ccc2c(c1)c(CC(=O)O)c(C)n2C(=O)c1ccc(Cl)cc1` [Indomethacin, reference compound], the “% ICPE (carrageenin-induced rat paw oedema inhibition)” value is given as 47 * % in data set [4] and 47% in data set [4] (listed as indomethacin).

In the case of `CC(=O)Nc1ccc(OC(=O)/C=C/c2ccccc2)cc1` [Compound 1a, (E) 4-Acetamidophenyl cinnamate], the “RM (±S.D.)” value in data set [1] is −0.725 ± 0.009. In data set [2] (setting [7]), the IC50 worked out at 10 µM. In addition, the inhibition in vivo at 0.01 mmol/0.1 kg in data set [5] is 77.3%. Also, in data set [3], the “AAPH % (% inhibition of lipid peroxidation)” value amounted to 95%. Besides, the inhibition at 100 µM in data set [6] (% inhibition at 100 μM, read-out: % Trypsin Inh.) worked out at 34%.

For `O=C(/C=C/c1cccc(Oc2ccccc2)c1)Oc1ccc2ccc(=O)oc2c1` [Compound 2c, (E)-2-Oxo-2H-chromen-7-yl 3-(3-phenoxyphenyl)acrylate], in data set [1], the “RM (±S.D.)” value amounted to 0.444 ±0.008. Besides, the inhibition at 100 µM in data set [2] (% inhibition at 100 μM, read-out: % LOX Inh.) amounted to 20%. Further, in data set [2] (setting [7]), the “IC50 μM LOX Inh.” value was “low or no activity”. Besides, the inhibition in vivo at 0.01 mmol/0.1 kg in data set [5] turned out to be 70.4%. Further, the “AAPH % (% inhibition of lipid peroxidation)” value in data set [3] turned out to be 93%. Further, the 50% inhibitory concentration (IC50) in data set [6] (bovine albumin substrate, pH 7.6, 37 °C, read-out: IC50 μM Trypsin Inh.) stood at 10 µM.

The values are drawn from publication PMC6271731, “Multitarget Molecular Hybrids of Cinnamic Acids” (Molecules, 2014).
